{"source": "ChEMBL document CHEMBL3044953", "about": "“Effect of nitrogen insertion on the antitussive properties of menthol and camphor” (Med Chem Res, 2012)", "key": {"Cavia porcellus [1]": {"organism": "Cavia porcellus", "experiment": "Antitussive activity against crtric acid-induced cough in Cavia porcellus (guinea pig) model assessed as increase in cough latency at 30 to 60 ug/ml for 5 min through aerosol prior to exposure of aerosolized citric acid for 10 min", "type": "functional, organism-based"}, "Cavia porcellus [2]": {"organism": "Cavia porcellus", "experiment": "Antitussive activity against crtric acid-induced cough in Cavia porcellus (guinea pig) model assessed as reduction in cough response at 15 to 60 ug/ml for 5 min through aerosol prior to exposure of aerosolized citric acid for 10 min", "type": "functional, organism-based"}, "Cavia porcellus [3]": {"organism": "Cavia porcellus", "experiment": "Toxicity in Cavia porcellus (guinea pig) assessed as adverse behavior at 125 to 500 ug/ml through aerosol", "type": "organism-based", "details": "in vivo, inhaled_or_intranasal"}, "Cavia porcellus [4]": {"organism": "Cavia porcellus", "experiment": "Toxicity in Cavia porcellus (guinea pig) assessed as irritation at 125 to 500 ug/ml through aerosol", "type": "organism-based", "details": "in vivo, inhaled_or_intranasal"}, "Cavia porcellus [5]": {"organism": "Cavia porcellus", "experiment": "Antitussive activity against crtric acid-induced cough in Cavia porcellus (guinea pig) model assessed as cough latency at 125 ug/ml for 5 min through aerosol prior to exposure of aerosolized citric acid for 10 min", "type": "functional, organism-based"}, "Cavia porcellus [6]": {"organism": "Cavia porcellus", "experiment": "Antitussive activity against crtric acid-induced cough in Cavia porcellus (guinea pig) model assessed as reduction in cough response at 125 to 500 ug/ml for 5 min through aerosol prior to exposure of aerosolized citric acid for 10 min", "type": "functional, organism-based"}, "Cavia porcellus [7]": {"organism": "Cavia porcellus", "experiment": "Antitussive activity against crtric acid-induced cough in Cavia porcellus (guinea pig) model assessed as increase in cough latency at 250 to 500 ug/ml for 5 min through aerosol prior to exposure of aerosolized citric acid for 10 min", "type": "functional, organism-based"}, "Cavia porcellus [8]": {"organism": "Cavia porcellus", "experiment": "Antitussive activity against crtric acid-induced cough in Cavia porcellus (guinea pig) model assessed as increase in cough latency at 15 to 60 ug/ml for 5 min through aerosol prior to exposure of aerosolized citric acid for 10 min", "type": "functional, organism-based"}, "Cavia porcellus [9]": {"organism": "Cavia porcellus", "experiment": "Toxicity in Cavia porcellus (guinea pig) assessed as adverse behavior at 15 to 60 ug/ml through aerosol", "type": "organism-based", "details": "in vivo, inhaled_or_intranasal"}, "Cavia porcellus [10]": {"organism": "Cavia porcellus", "experiment": "Toxicity in Cavia porcellus (guinea pig) assessed as irritation at 15 to 60 ug/ml through aerosol", "type": "organism-based", "details": "in vivo, inhaled_or_intranasal"}, "Cavia porcellus [11]": {"organism": "Cavia porcellus", "experiment": "Antitussive activity against crtric acid-induced cough in Cavia porcellus (guinea pig) model assessed as cough response at 125 ug/ml for 5 min through aerosol prior to exposure of aerosolized citric acid for 10 min", "type": "functional, organism-based"}, "Cavia porcellus [12]": {"organism": "Cavia porcellus", "experiment": "Antitussive activity against crtric acid-induced cough in Cavia porcellus (guinea pig) model assessed as cough latency at 125 to 250 ug/ml for 5 min through aerosol prior to exposure of aerosolized citric acid for 10 min", "type": "functional, organism-based"}, "Cavia porcellus [13]": {"organism": "Cavia porcellus", "experiment": "Antitussive activity against crtric acid-induced cough in Cavia porcellus (guinea pig) model assessed as increase in cough latency at 500 ug/ml for 5 min through aerosol prior to exposure of aerosolized citric acid for 10 min", "type": "functional, organism-based"}, "Cavia porcellus [14]": {"organism": "Cavia porcellus", "experiment": "Antitussive activity against crtric acid-induced cough in Cavia porcellus (guinea pig) model assessed as reduction in cough response at 250 to 500 ug/ml for 5 min through aerosol prior to exposure of aerosolized citric acid for 10 min", "type": "functional, organism-based"}}, "note": "Activity calls are given as the source filed them. The rule behind the calls is not given here."}
{"smiles": "CC1CCC(C(C)C)C(O)C1", "note": "(stereo not given)", "values": [{"measurement": "Activity", "setting": "Cavia porcellus [1]", "value": "Active"}, {"measurement": "inhibition", "setting": "Cavia porcellus [2]", "value": "Active"}]}
{"smiles": "CC1(C)C2CC[C@]1(C)C(=O)NC2", "note": "[Alpha-camphidone]", "values": [{"measurement": "Activity", "setting": "Cavia porcellus [3]", "value": "Non-toxic"}, {"measurement": "Activity", "setting": "Cavia porcellus [4]", "value": "Non-toxic"}, {"measurement": "Activity", "setting": "Cavia porcellus [5]", "value": "inactive"}, {"measurement": "inhibition", "setting": "Cavia porcellus [6]", "value": "Active"}, {"measurement": "Activity", "setting": "Cavia porcellus [7]", "value": "Active"}]}
{"smiles": "CC(C)[C@@H]1CC[C@@H](C)CC(=O)N1", "note": "[Menthol lactam]", "values": [{"measurement": "Activity", "setting": "Cavia porcellus [8]", "value": "Active"}, {"measurement": "Activity", "setting": "Cavia porcellus [9]", "value": "Non-toxic"}, {"measurement": "inhibition", "setting": "Cavia porcellus [2]", "value": "Active"}, {"measurement": "Activity", "setting": "Cavia porcellus [10]", "value": "Non-toxic"}]}
{"smiles": "CC12CCC(CC1=O)C2(C)C", "note": "(stereo not given)", "values": [{"measurement": "inhibition", "setting": "Cavia porcellus [11]", "value": "inactive"}, {"measurement": "Activity", "setting": "Cavia porcellus [12]", "value": "inactive"}, {"measurement": "Activity", "setting": "Cavia porcellus [13]", "value": "Active"}, {"measurement": "inhibition", "setting": "Cavia porcellus [14]", "value": "Active"}]}
